Reference: patent US12600696B2 (XENIOPRO GMBH, priority 2017, dated 2026)

Columns and labels:
Type in all cases: cell-based
[1] = system: HL-60 cells (human acute myeloid leukemia cells); experiment: alamarBlue proliferation assay with HL-60 cells; settings: 120 h, 5 days, relative to DMSO baseline level of 1.0, read-out: AVEw, weighted arithmetic mean of normalized fluorescence intensity values (Activity Range), HL-60 proliferation
Summary of the method: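 HL-60 cells (1000/well, RPMI 1640 + 10% FBS) exposed to compound in 0.1% DMSO for 5 days, then alamarBlue fluorescence read (ex 560/em 590 nm). Signals normalized to six DMSO wells per plate (baseline 1.0); outliers removed by Peirce/Chauvenet; weighted mean with combined SD; inhibitor criterion judged at 20 μM reference concentration.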

[2] = system: CAL-27 cells (human tongue squamous cell carcinoma cells); experiment: alamarBlue proliferation assay with CAL-27 cells; settings: Homo sapiens, 120 h, 20 μM, 5 days, relative to DMSO baseline level of 1.0, read-out: AVEw, weighted arithmetic mean of normalized fluorescence intensity values (Activity Range), CAL-27 proliferation
Method: The antiproliferative activities of compounds falling under formula I, formula II, formula III, formula IV and formula V were investigated on cells or cell lines originating from a disorder of the myeloid cell compartment, the neuroendocrine system, the cervix, and the mucosal epithelium, as well as from the skin epithelium. To this end, HL-60 cells, TT cells, HeLa cells, CAL-27 cells and human primary epidermal keratinocytes (HPEK) were seeded into 96-well plates suitable for fluorescence assays (CORNING #3598) at following initial cell numbers: 1000 cells per well for HL-60; 9000 cells per well for TT; 2000 cells per well for HeLa, 2000 cells per well for CAL-27, 2000 cells per well for HPEK. The cells were treated with compounds at indicated final concentrations (diluted from the 1000× stock-solutions in DMSO to a final DMSO concentration of 0.1% v/v) or with the empty carrier DMSO at 0.1% v/v as control for 5 days. At day 5 after starting the treatments the cells were subjected to the alamarBlue® Proliferation Assay (Bio-Rad Serotec GmbH, BUF012B) according to the protocol of the manufacturer. The readout was taken with a multi-well plate-reader in the fluorescence mode with applying a filter for excitation at 560 nm (band width 10 nm) and for emission at 590 nm (band width 10 nm). Resveratrol (RES) treatment was included as control for growth inhibition.
The assays were performed in duplicate or more replicates of independent single experiments each containing a six-fold replicate for every condition. For every individual plate, the measured fluorescence intensity values of the conditions with compound treatment were normalized against the corresponding equally weighted arithmetic mean of the fluorescence intensity values of the six DMSO treated control wells in order to obtain the relative values to a baseline level of 1.0. The statistical calculations were performed in analogy to the luciferase assay as described above. To this end, two independent outlier analyses were performed according to the methods by Peirce and Chauvenet (Ross, Journal of Engineering Technology 2003, 1-12). Outliers confirmed by at least one of the methods were excluded from the calculations but not more than one value out of six per compound within a single experiment. The weighted arithmetic mean AVEw for each compound was calculated from the normalized values over all independent replicates of the single experiments comprising the six replicates each. The corresponding standard deviation for the weighted arithmetic mean was calculated according to the method described by Bronstein et al. (Bronstein, Semendjajew, Musiol, Mühlig, Taschenbuch der Mathematik, 5th edition 2001 (German), publisher: Verlag Harri Deutsch, Frankfurt am Main and Thun) and was combined with the Gauß′ error propagation associated with the performed calculation for the normalization. The resulting standard deviation is herein referred to as “combined standard deviation”.
CAL-27 cells were cultivated according to the protocol of the provider (but at 5% instead of 10% CO2) in DMEM medium (Fisherscientific, #11584456) containing 10% fetal bovine serum (Fisherscientific, #15517589).
A compound is considered as a growth inhibitor of CAL-27 cells, if—at a reference concentration of 20 μM—the weighted arithmetic mean of the normalized fluorescence intensity values after addition of the corresponding combined standard deviation amounts to 0.9 or lower, in particular to 0.8 or lower, 0.7 or lower, 0.6 or lower, 0.4 or lower, and 0.2 or lower, relative to the overall basis level of 1.0. The overall basis level was calculated as the weighted arithmetic mean of all normalized values from the DMSO control measurements in analogy to the calculations performed for the test-compounds. The corresponding combined standard deviation for the DMSO values amounts to less than 1·10^−2.

[3] = system: Notch signaling (hNotch1ΔE, human Notch1 receptor) in HeLa cells; experiment: Notch reporter assay (luciferase luminescence readout in transfected HeLa cells); settings: Homo sapiens, 20 hours, relative to DMSO baseline level of 1.0, read-out: AVEw, weighted arithmetic mean of double-normalized Notch-reporter luciferase luminescence values (Activity Range)
Method: An according Notch-reporter assay, i.e. a luciferase-based luminescence readout, was used here to quantify the ability of the claimed small molecules to augment Notch signaling in a cellular system. For this purpose, HeLa cells, obtainable from the American Type Culture Collection (ATCC) under the accession number ATCC-CCL-2, were transiently transfected for 24 hours using FuGENE® HD (Promega, #E2311) as transfection reagent with expression vectors of a membrane-tethered form of the constitutively active intracellular domain of the human Notch1 receptor (hNotch1ΔE) to activate the signaling cascade (BPS Bioscience, human analogue to Notch Pathway Reporter Kit #60509 component C), a Firefly luciferase being expressed under the control of a Notch-responsive promoter to monitor Notch signaling (BPS Bioscience, Notch Pathway Reporter Kit #60509, CSL luciferase reporter vector from component A not premixed with Renilla luciferase vector), and a Renilla luciferase being constitutively expressed in a Notch signaling independent manner to include a measure for the cell number per sample (Promega, pRL-SV40, #E2231). HeLa cells were cultivated according to the protocol of the provider in DMEM medium (Fisherscientific, #11584456) containing 10% fetal bovine serum (Fisherscientific, #15517589). The transfection was carried out in a 100 mm-culture dish (StarLab, #CC7682-3394) with cells being properly attached to the plate at a cell confluency of 80-90% in a total volume of 7 mL culture medium. Per dish to be transfected, a transfection mix was prepared by adding to 238 μL Opti-MEM (Fisherscientific, #10149832) 40 μL of the hNotch1ΔE expression vector (100 ng/μL), 80 μL of the CSL luciferase reporter vector (40 ng/μL), 4 μL of the pRL-SV40-Renilla luciferase vector (10 ng/μL), and in the last step 18.1 μL of FuGENE® HD. After addition of FuGENE® HD the transfection mix was let stand for 15 min at room temperature and hereafter equally distributed into the culture dish. Subsequently, i.e. after 24 hours of transfection, the transfected cells (10.000 cells per well) were incubated with the test-compounds at a final concentration of 10 μM (diluted from 10 mM stock-solutions in DMSO to a final DMSO concentration of 0.1% v/v) or with the empty carrier DMSO at 0.1% v/v as control for 20 hours in 96-well plates suitable for luminescence readouts (CORNING, #3610). Hereafter, the cells were lysed with 30 μL per well of Passive Lysis Buffer (Promega, #E194A, component of Dual-Luciferase® Reporter Assay System, #E1910) and the Firefly as well as Renilla luciferase values were measured with a luminescence reader with applying 15 μL per well each of the corresponding enzyme substrates needed to create the luminescence signals (Promega, Dual-Luciferase® Reporter Assay System, #E1910).
The suitability of the assays for monitoring Notch signaling was controlled by additionally including a generally accepted commercial Notch inhibitor, i.e. DAPT, as negative control, as well as the reported Notch enhancer resveratrol (RES) as positive control (Pinchot et al., Cancer 2011, 117, 1386-1398; Truong et al., Ann. Surg. Oncol. 2011, 18, 1506-1511; Yu et al., Mol. Cancer Ther. 2013, 12, 1276-1287). Both control compounds were likewise tested at 10 μM.
Per single experiment the measurement was performed in six replicates per compound. For every compound, this experiment was repeated in three or more independent replicates. The values of the Notch-reporter luciferase were normalized by division through the corresponding individual Notch-independent Renilla values in order to eliminate the impact of variation in the absolute cell-numbers in between the samples. For every individual plate, a second normalization was performed against the equally weighted arithmetic mean (here abbreviated as AVE) of the six associated Renilla-normalized DMSO-control values within a single experiment in order to obtain the relative values to a baseline level of 1.0. […]

`Cc1ccc(Oc2ccc(C(=O)NO)cc2)cc1` [Compound 164, N-hydroxy-4-(p-tolyltoxy)benzamide] showed an activity at 20 µM [1] of 40 to 60% and an activity at 20 µM [2] of 70 to 80%.
With `CNC(=O)c1ccc(Oc2ccc(C3CC4CCC3CC4)cc2)cc1` (centres unmarked) [Compound 211, 4-(4-((1s,4s)-bicyclo[2.2.2]octan-2-yl)phenoxy)-N-methylbenzamide] the activity at 20 µM [1] was 20 to 40% and the activity at 20 µM [2] was 40 to 60%.
In the case of `CN(C)C(=O)c1ccc(Oc2ccc(C3C[C@@H]4CC[C@H]3C4)cc2)cc1` (stereo partly drawn) [Compound 236, 4-(4-((1S,4R)-bicyclo[2.2.1]heptan-2-yl)phenoxy)-N,N-dimethylbenzamide], the activity at 20 µM [1] is reported as 40 to 60% and the activity at 20 µM [2] is reported as 80 to 90%.
`CN(C)C(=O)c1ccc(Oc2ccc(C34CC5CC(CC(C5)C3)C4)cc2)cc1` [Compound 238, 4-(4-((3r,5r,7r)-adamantan-1-yl)pheoxy)-N,N-dimethylbenzamide] gave an activity at 20 µM [1] of 40 to 60% and an activity at 20 µM [2] of 60 to 70%.
For `CCCCCc1ccc(Oc2ccc(C(=O)NO)cn2)cc1` [Compound 270, N-hydroxy-6-(4-pentylphenoxy)nicotinamide], the activity at 20 µM [1] was 0 to 20% and the activity at 20 µM [2] was 0 to 20%.
Compound `CNC(=O)c1ccc(Oc2ccc(C34CC5CC(CC(C5)C3)C4)cc2)nc1` [Compound 313, 6-(4-((3r,5r,7r)-adamantan-1-yl)phenoxy)-N-methylnicotinamide] has an activity at 20 µM [1] of 40 to 60% and an activity at 20 µM [2] of 70 to 80%.
For `CN(C)C(=O)c1ccc(Oc2ccc(C(F)(F)F)cc2)nc1` [Compound 325, N,N-dimethyl-6-(4-(trifluoromethyl)phenoxy)nicotinamide], the fold induction at 10 µM [3] was 1.2 to 1.3 and the activity at 20 µM [1] was 80 to 90%.
`CN(C)C(=O)c1ccc(Oc2ccc(C3C[C@@H]4CC[C@H]3C4)cc2)nc1` (stereo partly drawn) [Compound 336, 6-(4-((1S,4R)-bicyclo[2.2.1]heptan-2-yl)phenoxy)-N,N-dimethylnicotinamide] gave a fold induction at 10 µM [3] of 1.4 to 1.7 and an activity at 20 µM [1] of 60 to 70%.
In the case of `CN(C)C(=O)c1ccc(Oc2ccc(C3CC4CCC3CC4)cc2)nc1` (centres unmarked) [Compound 337, 6-(4-((1s,4s)-bicyclo[2.2.2]octan-2-yl)phenoxy)-N,N-dimethylnicotinamide], the fold induction at 10 µM [3] is reported as 1.4 to 1.7 and the activity at 20 µM [1] is reported as 80 to 90%.
In the case of `COC(=O)c1ccc(Oc2ccc(C3CCCCC3)cc2)c(F)c1` [Compound 385, methyl 4-(4-cyclohexylphenoxy)-3-fluorobenzoate], the fold induction at 10 µM [3] is reported as 1.4 to 1.7 and the activity at 20 µM [1] is reported as 80 to 90%.
`CCCCc1ccc(Oc2ccc(C(=O)OCC)cc2F)cc1` [Compound 395, Ethyl 4-(4-butylphenoxy)-3-fluorobenzoate] was tested, and the fold induction at 10 µM [3] was 1.4 to 1.7 and the activity at 20 µM [1] was 80 to 90%.
Compound `CCOC(=O)c1ccc(Oc2ccc(C(C)(C)CC)cc2)c(F)c1` [Compound 399, ethyl 3-fluoro-4-(4-(tert-pentyl)phenoxy)benzoate] has a fold induction at 10 µM [3] of 1.1 to 1.2 and an activity at 20 µM [1] of 80 to 90%.
In the case of `CCOC(=O)c1ccc(Oc2ccc(C3CCCCC3)cc2)c(F)c1` [Compound 410, ethyl 4-(4-cyclohexylphenoxy)-3-fluorobenzoate], the fold induction at 10 µM [3] is reported as 1.4 to 1.7 and the activity at 20 µM [1] is reported as 70 to 80%.
`CCC(C)(C)c1ccc(Oc2ccc(C(=O)NO)cc2F)cc1` [Compound 529, 3-fluoro-N-hydroxy-4-(4-(tert-pentyl)phenoxy)benzamide] showed an activity at 20 µM [1] of 0 to 20% and an activity at 20 µM [2] of 0 to 20%.
For `CN(C)C(=O)c1ccc(Oc2ccc(C34CC5CC(CC(C5)C3)C4)cc2)c(F)c1` [Compound 596, 4-(4-((3r,5r,7r)-adamantan-1-yl)phenoxy)-3-fluoro-N,N-dimethylbenzamide], the activity at 20 µM [1] was 20 to 40% and the activity at 20 µM [2] was 80 to 90%.
With `O=C(NO)c1cnc(Oc2ccc(C34CC5CC(CC(C5)C3)C4)cc2)c(F)c1` [Compound 648, 6-(4-((3r,5r,7r)-adamantan-1-yl)phenoxy)-5-fluoro-N-hydroxynictinamide] the activity at 20 µM [1] was 0 to 20% and the activity at 20 µM [2] was 0 to 20%.
`COC(=O)c1ccc(Oc2ccc(C3(C(F)(F)F)CC3)cc2)cc1` [Compound 712, Methyl 4-(4-(1-(trifluoromethyl)cyclopropyl)phenoxy)benzoate] gave a fold induction at 10 µM [3] of 1.1 to 1.2 and an activity at 20 µM [1] of 80 to 90%.
Work on `O=C(NO)c1ccc(Oc2ccc(C3(C(F)(F)F)CC3)cc2)cc1` [Compound 766, N-hydroxy-4-(4-(1-(trifluoromethyl)cyclopropyl)phenoxy)benzamide] yielded an activity at 20 µM [1] of 0 to 20% and an activity at 20 µM [2] of 0 to 20%.
`CN(C)C(=O)c1ccc(Oc2ccc(C3(C(F)(F)F)CC3)cc2)cc1` [Compound 784, N,N-Dimethyl-4-(4-(1-(trifluoromethyl)cyclopropyl)phenoxy)-benzamide] showed a fold induction at 10 µM [3] of 1.2 to 1.3 and an activity at 20 µM [1] of 40 to 60%.
